Target: T1, norepinephrine transporter (NET) (Homo sapiens, UniProt P23975)
T1 construct: host or cells: CHO cells (membrane preparation)
Assay: Eurofins Cerep competition binding assay at norepinephrine transporter
Settings: 10 μM test ligand, [3H]nisoxetine, recombinant transporter from CHO cells; 10 µM

T1 sequence (P23975 whole entry): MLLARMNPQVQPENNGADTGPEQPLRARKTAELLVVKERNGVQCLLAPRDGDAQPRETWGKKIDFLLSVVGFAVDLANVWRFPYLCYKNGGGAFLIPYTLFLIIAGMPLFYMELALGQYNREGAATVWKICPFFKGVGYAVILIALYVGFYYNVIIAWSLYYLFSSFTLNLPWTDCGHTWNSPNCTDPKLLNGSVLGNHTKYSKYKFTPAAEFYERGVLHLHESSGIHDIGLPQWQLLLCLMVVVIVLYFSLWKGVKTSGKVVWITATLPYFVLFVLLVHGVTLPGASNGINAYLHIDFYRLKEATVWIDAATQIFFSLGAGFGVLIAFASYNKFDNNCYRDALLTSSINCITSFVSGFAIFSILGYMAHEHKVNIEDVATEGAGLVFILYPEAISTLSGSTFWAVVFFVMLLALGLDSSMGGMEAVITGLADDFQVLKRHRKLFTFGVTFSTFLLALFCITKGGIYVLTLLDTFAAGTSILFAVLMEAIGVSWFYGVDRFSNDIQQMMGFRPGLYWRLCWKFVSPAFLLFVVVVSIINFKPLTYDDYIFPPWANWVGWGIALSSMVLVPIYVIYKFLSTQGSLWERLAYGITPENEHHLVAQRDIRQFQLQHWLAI

`CC(C(O)c1ccc2c(c1)OCO2)N(C)Cc1ccccc1` (single isomer, unassigned) [B(III) as diast. (iv)] was tested, and the “NET, percent of control-specific binding” value was 25%.

Same assay, conditions: read-out: NET, percent of control-specific binding, 10 μM test ligand, [3H]nisoxetine, recombinant transporter from CHO cells

First: CC(C(=O)c1ccc2c(c1)OCO2)N1CCCC1 (racemic) [A(I)]
Second: COc1cc(CCN)cc(OC)c1OC [mescaline, 3,4,5 trimethoxyphenethylamine]
The inhibition at 10 µM of the first is higher: 59% for the first, -9% for the second.

With `CCCOc1c(OC)cc(CCN)cc1OC` [proscaline] the inhibition at 10 µM was -9%.

Target: T2, 5-HT7 receptor (Homo sapiens, UniProt P34969)
T2 construct: host or cells: HEK-293 cells (membrane preparation)
T2 sequence (P34969 whole entry): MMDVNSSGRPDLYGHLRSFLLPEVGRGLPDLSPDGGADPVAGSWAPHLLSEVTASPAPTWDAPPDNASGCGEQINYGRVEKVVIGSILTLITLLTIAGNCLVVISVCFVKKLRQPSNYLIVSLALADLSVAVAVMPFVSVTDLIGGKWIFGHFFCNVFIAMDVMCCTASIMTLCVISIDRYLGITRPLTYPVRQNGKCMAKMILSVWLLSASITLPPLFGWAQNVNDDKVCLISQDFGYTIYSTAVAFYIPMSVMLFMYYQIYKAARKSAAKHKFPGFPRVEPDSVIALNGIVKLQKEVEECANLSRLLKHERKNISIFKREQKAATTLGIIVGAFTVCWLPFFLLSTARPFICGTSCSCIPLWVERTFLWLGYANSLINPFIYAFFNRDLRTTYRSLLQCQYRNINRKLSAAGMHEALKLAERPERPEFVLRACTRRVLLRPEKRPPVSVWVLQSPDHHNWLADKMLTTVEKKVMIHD
Assay: Eurofins Cerep competition binding assay at 5-HT7 receptor
Settings: 10 μM test ligand, [3H]LSD, recombinant receptor from HEK-293 cells; 10 µM

`CC(C(O)c1ccc2c(c1)OCO2)N(C)Cc1ccccc1` (single isomer, unassigned) [B(III) as diast. (iv)] was tested, and the “HT7, percent of control-specific binding” value was 23%.

Same assay, conditions: 10 μM test ligand, [3H]LSD, recombinant receptor from HEK-293 cells; read-out: HT7, percent of control-specific binding

Compared with `CC(C(=O)c1ccc2c(c1)OCO2)N1CCCC1` (racemic) [A(I)], `COc1cc(CCN)cc(OC)c1OC` [mescaline, 3,4,5 trimethoxyphenethylamine] is higher in inhibition at 10 µM: 3% for the first, 38% for the second.

In the case of `CCCOc1c(OC)cc(CCN)cc1OC` [proscaline], the inhibition at 10 µM is reported as 5%.

Target: T3, alpha2A receptor (Homo sapiens, UniProt P08913)
T3 construct: host or cells: CHO cells (membrane preparation)
T3 sequence (P08913 1-465): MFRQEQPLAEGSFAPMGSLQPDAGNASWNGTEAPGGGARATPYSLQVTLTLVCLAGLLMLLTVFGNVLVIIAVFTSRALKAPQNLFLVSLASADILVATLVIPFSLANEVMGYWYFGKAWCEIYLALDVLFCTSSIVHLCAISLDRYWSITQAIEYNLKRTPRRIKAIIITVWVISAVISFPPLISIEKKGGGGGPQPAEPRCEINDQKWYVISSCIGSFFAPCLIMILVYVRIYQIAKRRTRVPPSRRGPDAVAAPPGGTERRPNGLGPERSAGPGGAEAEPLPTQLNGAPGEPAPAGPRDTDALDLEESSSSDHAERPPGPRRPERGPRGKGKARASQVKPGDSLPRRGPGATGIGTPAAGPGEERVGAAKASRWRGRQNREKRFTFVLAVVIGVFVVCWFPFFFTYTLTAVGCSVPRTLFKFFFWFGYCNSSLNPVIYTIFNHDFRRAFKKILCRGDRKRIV
Assay: Eurofins Cerep competition binding assay at alpha2A receptor
Settings: 10 μM test ligand, [3H]RX 821002, recombinant receptor from CHO cells; 10 µM

In the case of `CC(C(O)c1ccc2c(c1)OCO2)N(C)Cc1ccccc1` (single isomer, unassigned) [B(III) as diast. (iv)], the “α-2A, percent of control-specific binding” value is reported as 42%.

Same assay, conditions: 10 μM test ligand, [3H]RX 821002, recombinant receptor from CHO cells; read-out: α-2A, percent of control-specific binding

First: CC(C(=O)c1ccc2c(c1)OCO2)N1CCCC1 (racemic) [A(I)]
Second: COc1cc(CCN)cc(OC)c1OC [mescaline, 3,4,5 trimethoxyphenethylamine]
The inhibition at 10 µM of the first is lower: 24% for the first, 57% for the second.

Work on `CCCOc1c(OC)cc(CCN)cc1OC` [proscaline] yielded an inhibition at 10 µM of 40%.

Target: T4, 5-HT2B receptor (Homo sapiens, UniProt P41595)
T4 construct: host or cells: CHO cells (membrane preparation)
T4 sequence (P41595 whole entry): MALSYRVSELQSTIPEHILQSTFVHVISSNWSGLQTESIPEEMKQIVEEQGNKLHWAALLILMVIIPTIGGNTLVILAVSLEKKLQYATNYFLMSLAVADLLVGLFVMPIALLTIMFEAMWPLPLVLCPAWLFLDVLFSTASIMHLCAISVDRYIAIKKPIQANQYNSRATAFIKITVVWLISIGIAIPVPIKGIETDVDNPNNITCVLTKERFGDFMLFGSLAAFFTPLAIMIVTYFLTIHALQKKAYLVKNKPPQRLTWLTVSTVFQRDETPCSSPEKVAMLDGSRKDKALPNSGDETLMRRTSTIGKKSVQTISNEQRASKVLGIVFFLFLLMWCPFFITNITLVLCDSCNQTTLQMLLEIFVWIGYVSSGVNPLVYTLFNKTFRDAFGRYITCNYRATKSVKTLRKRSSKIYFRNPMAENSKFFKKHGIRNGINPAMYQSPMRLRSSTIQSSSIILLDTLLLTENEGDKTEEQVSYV
Assay: Eurofins Cerep competition binding assay at 5-HT2B receptor
Settings: 10 μM test ligand, [3H]mesulergine, recombinant receptor from CHO cells; 10 µM

`CC(C(O)c1ccc2c(c1)OCO2)N(C)Cc1ccccc1` (single isomer, unassigned) [B(III) as diast. (iv)] was tested, and the “HT2B, percent of control-specific binding” value was 28%.

Same assay, conditions: 10 μM test ligand, [3H]mesulergine, recombinant receptor from CHO cells; read-out: HT2B, percent of control-specific binding

Compared with `CC(C(=O)c1ccc2c(c1)OCO2)N1CCCC1` (racemic) [A(I)], `COc1cc(CCN)cc(OC)c1OC` [mescaline, 3,4,5 trimethoxyphenethylamine] is higher in inhibition at 10 µM: 19% for the first, 80% for the second.

Compound `CCCOc1c(OC)cc(CCN)cc1OC` [proscaline] has an inhibition at 10 µM of 85%.

Target: T5, serotonin transporter (SERT) (Homo sapiens, UniProt P31645)
T5 construct: host or cells: CHO cells (membrane preparation)
T5 sequence (P31645 whole entry): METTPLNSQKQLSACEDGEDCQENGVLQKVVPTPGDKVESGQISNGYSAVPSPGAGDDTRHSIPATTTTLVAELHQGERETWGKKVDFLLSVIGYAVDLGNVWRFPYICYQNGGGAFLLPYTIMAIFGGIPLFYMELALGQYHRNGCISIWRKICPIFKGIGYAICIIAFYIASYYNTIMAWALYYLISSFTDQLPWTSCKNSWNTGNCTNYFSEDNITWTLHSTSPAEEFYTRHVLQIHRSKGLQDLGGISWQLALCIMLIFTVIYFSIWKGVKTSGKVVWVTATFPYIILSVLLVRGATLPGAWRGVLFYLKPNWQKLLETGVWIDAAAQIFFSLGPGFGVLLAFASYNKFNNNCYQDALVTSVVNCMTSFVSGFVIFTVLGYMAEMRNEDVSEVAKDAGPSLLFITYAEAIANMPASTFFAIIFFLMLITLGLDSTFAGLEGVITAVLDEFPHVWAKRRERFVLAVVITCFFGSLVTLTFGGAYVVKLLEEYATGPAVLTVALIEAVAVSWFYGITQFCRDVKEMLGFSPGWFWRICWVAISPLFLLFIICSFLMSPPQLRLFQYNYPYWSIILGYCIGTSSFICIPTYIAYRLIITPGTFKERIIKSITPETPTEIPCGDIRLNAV
Assay: biochemical
Format: binding
Settings: 10 µM

With `CC(C(O)c1ccc2c(c1)OCO2)N(C)Cc1ccccc1` (single isomer, unassigned) [B(III) as diast. (iv)] the “SERT, percent of control-specific binding” value was 44%.

Same assay, conditions: read-out: SERT, percent of control-specific binding

Compared with `CC(C(=O)c1ccc2c(c1)OCO2)N1CCCC1` (racemic) [A(I)], `COc1cc(CCN)cc(OC)c1OC` [mescaline, 3,4,5 trimethoxyphenethylamine] is lower in inhibition at 10 µM: 25% for the first, -6% for the second.

For `CCCOc1c(OC)cc(CCN)cc1OC` [proscaline], the inhibition at 10 µM was 23%.

Target: T6, 5-HT1A receptor (Homo sapiens, UniProt P08908)
T6 construct: purchased Perkin Elmer 6110501400UA
T6 sequence (P08908 1-422): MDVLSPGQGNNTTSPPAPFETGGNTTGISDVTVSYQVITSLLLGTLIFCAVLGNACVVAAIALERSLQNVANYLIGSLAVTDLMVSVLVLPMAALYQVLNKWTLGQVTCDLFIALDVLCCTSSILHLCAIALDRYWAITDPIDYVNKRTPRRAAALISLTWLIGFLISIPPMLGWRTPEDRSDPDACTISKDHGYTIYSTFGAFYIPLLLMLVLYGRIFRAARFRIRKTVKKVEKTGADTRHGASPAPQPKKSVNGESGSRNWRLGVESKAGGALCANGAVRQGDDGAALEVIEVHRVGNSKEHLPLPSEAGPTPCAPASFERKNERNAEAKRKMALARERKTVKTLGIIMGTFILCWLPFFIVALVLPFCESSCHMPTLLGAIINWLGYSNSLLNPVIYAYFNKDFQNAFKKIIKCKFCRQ
Assay: 5-HT1A receptor radioligand competition assay (SPA)
Format: binding
Settings: 5-HT1A, Ki, competition with 0.5 nM [3H]8-hydroxy-DPAT, membranes containing 5-HT1A

Compared with `CC(C(O)c1ccc2c(c1)OCO2)N(C)Cc1ccccc1` (single isomer, unassigned) [B(III) as diast. (iv)], `CC(C(=O)c1ccc2c(c1)OCO2)N1CCCC1` (racemic) [A(I)] is 8.4-fold lower in Ki: 16.9 µM for the first, 2 µM for the second.

`COc1cc(CCN)cc(OC)c1OC` [mescaline, 3,4,5 trimethoxyphenethylamine] and `CCCOc1c(OC)cc(CCN)cc1OC` [proscaline] are within 1.5-fold of each other in Ki: 8.5 µM for the first, 9.4 µM for the second.

Target: T6, 5-HT1A receptor
Assay: 5-HT1A receptor functional cellular response (cAMP) assay
Format: cell-based
Settings: not given

In the case of `COc1cc(CCN)cc(OC)c1OC` [mescaline, 3,4,5 trimethoxyphenethylamine], the EC50 is reported as over 1000 µM.

Target: T7, dopamine transporter (DAT) (Homo sapiens, UniProt Q01959)
T7 construct: host or cells: CHO cells (membrane preparation)
T7 sequence (Q01959 whole entry): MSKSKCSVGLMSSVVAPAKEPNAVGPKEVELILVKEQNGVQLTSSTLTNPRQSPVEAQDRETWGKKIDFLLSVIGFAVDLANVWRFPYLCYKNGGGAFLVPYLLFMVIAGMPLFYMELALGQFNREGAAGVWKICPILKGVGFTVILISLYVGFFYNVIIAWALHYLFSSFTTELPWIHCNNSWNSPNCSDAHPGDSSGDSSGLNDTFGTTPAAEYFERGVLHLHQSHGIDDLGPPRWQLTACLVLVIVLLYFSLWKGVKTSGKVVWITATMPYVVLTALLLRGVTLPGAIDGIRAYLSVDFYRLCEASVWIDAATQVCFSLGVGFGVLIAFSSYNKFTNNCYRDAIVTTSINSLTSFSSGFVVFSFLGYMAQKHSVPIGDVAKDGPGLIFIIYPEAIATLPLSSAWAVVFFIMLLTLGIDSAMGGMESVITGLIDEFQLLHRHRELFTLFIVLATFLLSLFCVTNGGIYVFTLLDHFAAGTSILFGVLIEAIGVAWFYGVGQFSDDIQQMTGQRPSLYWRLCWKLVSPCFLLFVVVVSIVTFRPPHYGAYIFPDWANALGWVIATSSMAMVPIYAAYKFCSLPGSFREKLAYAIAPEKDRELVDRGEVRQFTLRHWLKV
Assay: Eurofins Cerep competition binding assay at dopamine transporter
Settings: 10 μM test ligand, [3H]BTCP, recombinant transporter from CHO cells; 10 µM

With `CC(C(O)c1ccc2c(c1)OCO2)N(C)Cc1ccccc1` (single isomer, unassigned) [B(III) as diast. (iv)] the “DAT, percent of control-specific binding” value was 76%.

Same assay, conditions: read-out: DAT, percent of control-specific binding, 10 μM test ligand, [3H]BTCP, recombinant transporter from CHO cells

First: CC(C(=O)c1ccc2c(c1)OCO2)N1CCCC1 (racemic) [A(I)]
Second: COc1cc(CCN)cc(OC)c1OC [mescaline, 3,4,5 trimethoxyphenethylamine]
The inhibition at 10 µM of the first is higher: 95% for the first, -1% for the second.

In the case of `CCCOc1c(OC)cc(CCN)cc1OC` [proscaline], the inhibition at 10 µM is reported as -2%.

Target: T8, MT1 receptor (Homo sapiens, UniProt P48039)
T8 construct: host or cells: CHO cells (membrane preparation)
T8 sequence (P48039 whole entry): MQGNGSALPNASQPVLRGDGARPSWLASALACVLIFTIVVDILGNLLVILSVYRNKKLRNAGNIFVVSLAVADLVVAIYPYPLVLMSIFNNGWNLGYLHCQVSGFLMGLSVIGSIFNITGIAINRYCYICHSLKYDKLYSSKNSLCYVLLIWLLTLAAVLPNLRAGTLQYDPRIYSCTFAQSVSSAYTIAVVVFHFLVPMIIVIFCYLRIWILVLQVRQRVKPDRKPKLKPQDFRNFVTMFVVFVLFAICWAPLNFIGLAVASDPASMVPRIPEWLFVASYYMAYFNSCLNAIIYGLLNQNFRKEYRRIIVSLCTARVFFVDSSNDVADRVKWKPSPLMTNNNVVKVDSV
Assay: Eurofins Cerep competition binding assay at MT1 receptor
Settings: 10 μM test ligand, [125I]2-iodomelatonin, recombinant receptor from CHO cells; 10 µM

With `CC(C(O)c1ccc2c(c1)OCO2)N(C)Cc1ccccc1` (single isomer, unassigned) [B(III) as diast. (iv)] the “MT1, percent of control-specific binding” value was 15%.

Same assay, conditions: read-out: MT1, percent of control-specific binding, 10 μM test ligand, [125I]2-iodomelatonin, recombinant receptor from CHO cells

Compared with `CC(C(=O)c1ccc2c(c1)OCO2)N1CCCC1` (racemic) [A(I)], `COc1cc(CCN)cc(OC)c1OC` [mescaline, 3,4,5 trimethoxyphenethylamine] is higher in inhibition at 10 µM: 5% for the first, 6% for the second.

Work on `CCCOc1c(OC)cc(CCN)cc1OC` [proscaline] yielded an inhibition at 10 µM of 3%.

Target: T9, 5-HT2C receptor (Homo sapiens, UniProt P28335)
T9 construct: host or cells: HEK-293 cells (membrane preparation)
T9 sequence (P28335 33-458): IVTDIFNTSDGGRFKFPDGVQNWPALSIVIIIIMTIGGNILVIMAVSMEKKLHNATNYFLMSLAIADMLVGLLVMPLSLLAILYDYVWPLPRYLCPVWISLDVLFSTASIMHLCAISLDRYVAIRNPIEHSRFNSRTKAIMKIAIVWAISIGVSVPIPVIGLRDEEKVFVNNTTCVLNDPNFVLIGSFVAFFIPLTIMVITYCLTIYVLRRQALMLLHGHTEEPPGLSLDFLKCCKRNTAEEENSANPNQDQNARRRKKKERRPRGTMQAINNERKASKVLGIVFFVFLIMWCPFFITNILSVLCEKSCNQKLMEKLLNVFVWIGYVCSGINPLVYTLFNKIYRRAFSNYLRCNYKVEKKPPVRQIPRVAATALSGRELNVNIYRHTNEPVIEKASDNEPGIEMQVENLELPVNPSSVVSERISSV
Assay: Eurofins Cerep competition binding assay at 5-HT2C receptor
Settings: 10 μM test ligand, [125I](±)DOI, recombinant receptor from HEK-293 cells; 10 µM

In the case of `CC(C(O)c1ccc2c(c1)OCO2)N(C)Cc1ccccc1` (single isomer, unassigned) [B(III) as diast. (iv)], the “HT2C, percent of control-specific binding” value is reported as 14%.

Same assay, conditions: 10 μM test ligand, [125I](±)DOI, recombinant receptor from HEK-293 cells; read-out: HT2C, percent of control-specific binding

Compared with `CC(C(=O)c1ccc2c(c1)OCO2)N1CCCC1` (racemic) [A(I)], `COc1cc(CCN)cc(OC)c1OC` [mescaline, 3,4,5 trimethoxyphenethylamine] is higher in inhibition at 10 µM: 45% for the first, 95% for the second.

With `CCCOc1c(OC)cc(CCN)cc1OC` [proscaline] the inhibition at 10 µM was 97%.

Target: T6, 5-HT1A receptor
Assay: Eurofins Cerep competition binding assay at 5-HT1A receptor
Settings: 10 μM test ligand, [3H]8-OH-DPAT, recombinant receptor from HEK-293 cells; 10 µM

For `CC(C(O)c1ccc2c(c1)OCO2)N(C)Cc1ccccc1` (single isomer, unassigned) [B(III) as diast. (iv)], the “HT1A, percent of control-specific binding” value was 22%.

Same assay, conditions: 10 μM test ligand, [3H]8-OH-DPAT, recombinant receptor from HEK-293 cells; read-out: HT1A, percent of control-specific binding

First: CC(C(=O)c1ccc2c(c1)OCO2)N1CCCC1 (racemic) [A(I)]
Second: COc1cc(CCN)cc(OC)c1OC [mescaline, 3,4,5 trimethoxyphenethylamine]
The inhibition at 10 µM of the first is higher: 73% for the first, 65% for the second.

`CCCOc1c(OC)cc(CCN)cc1OC` [proscaline] showed an inhibition at 10 µM of 71%.

Target: T10, 5-HT2A receptor (Homo sapiens, UniProt P28223)
T10 construct: purchased PerkinElmer ES-313-M400UA
T10 sequence (P28223 whole entry): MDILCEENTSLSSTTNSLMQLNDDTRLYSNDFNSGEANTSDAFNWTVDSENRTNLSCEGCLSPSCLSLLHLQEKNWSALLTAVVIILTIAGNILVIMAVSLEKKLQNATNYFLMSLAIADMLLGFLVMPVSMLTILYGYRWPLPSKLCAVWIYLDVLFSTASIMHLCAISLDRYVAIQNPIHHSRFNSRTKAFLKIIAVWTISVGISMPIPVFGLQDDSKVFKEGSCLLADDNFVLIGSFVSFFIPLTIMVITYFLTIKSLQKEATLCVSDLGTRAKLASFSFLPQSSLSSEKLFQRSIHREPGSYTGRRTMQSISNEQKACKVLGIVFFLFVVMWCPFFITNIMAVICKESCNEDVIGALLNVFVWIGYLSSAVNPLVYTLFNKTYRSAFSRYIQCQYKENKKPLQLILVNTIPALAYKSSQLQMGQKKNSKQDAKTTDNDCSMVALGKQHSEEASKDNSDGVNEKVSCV
Assay: biochemical
Format: binding
Settings: competition with 1 nM [3H]ketanserin, membranes containing 5-HT2A, SPA

Compared with `CC(C(=O)c1ccc2c(c1)OCO2)N1CCCC1` (racemic) [A(I)], `CCCOc1c(OC)cc(CCN)cc1OC` [proscaline] is 1.6-fold lower in Ki: 131 µM for the first, 82 µM for the second. The second binds more tightly here.
